Patent US11753376B2, “Benzyloxy pyridine derivatives and uses thereof” (AUTOTAC INC., priority 2021, dated 2023)

Tested on: intracellular autophagy flux (LC3-II) in HEK293T cell line
Experiment: Evaluation of intracellular autophagy activity (autophagy flux) by immunoblotting
Type: cell-based, human
Settings: HCQ 5 μM, 24 hours
Method: In order to evaluate the autophagy flux activity efficacy by the compounds, the HEK293T cell line, which is a cell line derived from a human embryonic kidney-derived cell, was cultured using a DMEM medium containing 10% FBS and 1% streptomycin/penicillin in an incubator with 5% carbon dioxide. In order to measure the autophagy flux activity according to the treatment of the compounds synthesized in the above examples, each cell was dispensed in a 6-well plate. Additional incubation was carried out for 24 hours so that the cells were completely attached to the surface of the plate. Cells were collected after treatment with the compound (5 μM) alone or with the lysosomal inhibitor, hydroxychloroquine (HCQ) (5 μM) for 24 hours to determine whether the compound increases autophagy flux. […] Based on the measured total protein concentration, a sample buffer was added to each sample and reacted at 100° C. for 5 minutes. […]
FIG. 2 is a result of immunoblotting showing the efficacy of the compound (ATB1110) to activate intracellular autophagy flux. […] As HCQ was treated, the level of LC3-II, a marker of autophagy activity, was increased, and the difference between LC3-II in the untreated state and the treated state was measured. […]

`CCN(CCO)CCCC(C)Nc1ccnc2cc(Cl)ccc12` (stereo not shown) [HCQ, hydroxychloroquine] was tested, and the “level of LC3-II, a marker of autophagy activity” value was “increased”.
